Six compounds from patent US8546603B2, “Substituted cyclopentanes having prostaglandin activity” (Allergan, Inc., priority 2007, dated 2013) can be followed below.

Experiment [1] concerns the target T1, EP4 (Homo sapiens, UniProt P35408). The experiment can be described thus: EP4 binding assay. From the text:
(§1) U.S. patent application Ser. No. 11/553,143, filed on Oct. 26, 2006, incorporated by reference herein, describes the methods used to obtain the in vitro data in Table 1 below.

Another experiment has as its target T2, EP3 (Homo sapiens, UniProt P43115).
T2 sequence (P43115 1-390): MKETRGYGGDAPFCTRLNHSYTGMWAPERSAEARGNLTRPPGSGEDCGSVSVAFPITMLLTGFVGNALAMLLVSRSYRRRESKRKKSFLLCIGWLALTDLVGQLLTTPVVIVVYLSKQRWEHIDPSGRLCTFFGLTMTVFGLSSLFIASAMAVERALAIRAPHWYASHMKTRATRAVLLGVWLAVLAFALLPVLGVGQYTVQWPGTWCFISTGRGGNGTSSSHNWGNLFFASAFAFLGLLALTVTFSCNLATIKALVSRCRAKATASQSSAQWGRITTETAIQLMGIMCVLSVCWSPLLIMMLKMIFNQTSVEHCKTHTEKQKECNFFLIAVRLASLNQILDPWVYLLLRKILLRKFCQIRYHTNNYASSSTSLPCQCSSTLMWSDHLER
The experiment can be described thus: EP3 functional assay. In kind it is cell-based.
Excerpt: as §1

Experiment [2] deals with T1, EP4. Briefly: EP4 Ca2+ signal assay. In kind it is cell-based. As to conditions: for EP4 Ca2+ signal % PGE2: relative to PGE2.
Excerpt: as §1

Experiment [3] concerns the target T3, EP2 (Homo sapiens, UniProt P43116). The experiment can be described thus: EP2 cAMP assay. The experiment is classed as cell-based.
Excerpt: as §1

The target of experiment [4] is T3, EP2. Briefly: EP2 binding assay.
Excerpt: as §1

Experiment [5] has as its target T3, EP2. The experiment can be described thus: EP2 Ca2+ signal assay. The experiment is classed as cell-based. As to conditions: for EP2 Ca2+ signal % PGE2: relative to PGE2.
Excerpt: as §1

The next experiment addresses T4, EP1 (Homo sapiens, UniProt P34995).
T4 sequence (P34995 1-402): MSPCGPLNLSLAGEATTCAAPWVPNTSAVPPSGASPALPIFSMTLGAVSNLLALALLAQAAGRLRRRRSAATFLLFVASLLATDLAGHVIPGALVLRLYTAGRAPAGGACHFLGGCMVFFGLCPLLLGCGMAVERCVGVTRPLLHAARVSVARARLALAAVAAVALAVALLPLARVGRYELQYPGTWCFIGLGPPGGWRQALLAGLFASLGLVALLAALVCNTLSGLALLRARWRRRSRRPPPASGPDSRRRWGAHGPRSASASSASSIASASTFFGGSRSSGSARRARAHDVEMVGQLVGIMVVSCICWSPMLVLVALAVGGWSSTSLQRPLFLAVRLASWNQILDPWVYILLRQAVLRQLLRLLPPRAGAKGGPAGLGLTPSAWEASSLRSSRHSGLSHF
The experiment can be described thus: EP1 functional assay. In kind it is cell-based.
Excerpt: as §1

A further experiment concerns the target T5, TP (Homo sapiens, UniProt P21731).
T5 sequence (P21731 1-343): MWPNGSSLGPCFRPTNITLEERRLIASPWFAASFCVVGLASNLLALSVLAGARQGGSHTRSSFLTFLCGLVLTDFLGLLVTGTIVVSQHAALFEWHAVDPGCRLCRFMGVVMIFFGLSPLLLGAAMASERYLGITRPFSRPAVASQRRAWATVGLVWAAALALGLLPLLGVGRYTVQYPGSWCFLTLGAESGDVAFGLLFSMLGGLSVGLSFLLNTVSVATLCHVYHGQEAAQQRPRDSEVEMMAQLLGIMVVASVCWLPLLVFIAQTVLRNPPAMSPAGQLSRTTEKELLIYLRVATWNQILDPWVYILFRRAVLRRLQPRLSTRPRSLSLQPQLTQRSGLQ
Briefly: TP functional assay. The experiment is classed as cell-based.
Excerpt: as §1

Read-outs that look alike come from different tables or passages of the source.

T1 sequence (P35408 whole entry): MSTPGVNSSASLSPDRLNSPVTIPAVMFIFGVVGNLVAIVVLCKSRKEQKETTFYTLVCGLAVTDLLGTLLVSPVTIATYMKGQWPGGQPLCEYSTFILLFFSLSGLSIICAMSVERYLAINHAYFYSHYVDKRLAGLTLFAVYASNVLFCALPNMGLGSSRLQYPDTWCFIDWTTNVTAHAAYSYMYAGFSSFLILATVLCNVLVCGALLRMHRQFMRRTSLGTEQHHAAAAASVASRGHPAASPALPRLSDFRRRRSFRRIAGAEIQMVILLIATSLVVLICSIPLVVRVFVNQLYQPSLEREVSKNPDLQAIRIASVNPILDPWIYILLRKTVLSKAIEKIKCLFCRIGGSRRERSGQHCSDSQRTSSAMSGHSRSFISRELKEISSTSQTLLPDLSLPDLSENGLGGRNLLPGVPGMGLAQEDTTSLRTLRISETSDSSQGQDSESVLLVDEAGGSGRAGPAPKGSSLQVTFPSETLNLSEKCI
T3 sequence (P43116 whole entry): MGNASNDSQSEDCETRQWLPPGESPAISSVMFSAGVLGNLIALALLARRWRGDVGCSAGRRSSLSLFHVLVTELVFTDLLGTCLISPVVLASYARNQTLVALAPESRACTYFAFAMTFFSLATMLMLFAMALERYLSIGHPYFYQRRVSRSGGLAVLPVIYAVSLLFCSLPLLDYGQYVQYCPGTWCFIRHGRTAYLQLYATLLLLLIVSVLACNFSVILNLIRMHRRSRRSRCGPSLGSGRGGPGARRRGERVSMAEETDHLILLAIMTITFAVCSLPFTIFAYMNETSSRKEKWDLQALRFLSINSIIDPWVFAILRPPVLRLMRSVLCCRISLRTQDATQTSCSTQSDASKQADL

`C[C@@H](O)CCC[C@H](O)/C=C/[C@H]1[C@H](O)CC(=O)[C@@H]1C/C=C\CCCC(=O)O` [AGN-191286]: the EC50 at EP4 [1] was 1510 nM; at EP3 it was 11 nM; on EP4 [2] it was 192 nM; at EP2 [3] it was 0.7 nM; on EP2 [4], 530 nM; on EP2 [5], 28 nM. Also, the EC50 at EP1 is 308 nM; at TP it was 3010 nM. Also, on EP4 [1], the “EP4 Binding % Inh” value turned out to be 75%. For the same compound, the “EP4 Ca2+ signal % PGE2” value on EP4 [2] amounted to 100%. Further, the “EP2 Binding % Inh” value at EP2 [4] came out at 92%. Also, on EP2 [5], the “EP2 Ca2+ signal % PGE2” value is 100%.
On to `C[C@@H](O)CCC[C@H](O)/C=C/[C@H]1[C@H](O)CC(=O)[C@@H]1CCCCCCC(=O)O` [AGN-191287], for which the EC50 on EP4 [1] came out at 1670 nM; at EP3 it was 21 nM; on EP4 [2], 193 nM; at EP2 [3], 0.9 nM; at EP2 [4] it was 487 nM; at EP2 [5] it was 34 nM. For the same compound, the EC50 on EP1 stood at 2760 nM; at TP, 5270 nM. Moreover, the “EP4 Binding % Inh” value on EP4 [1] is 75%. For the same compound, at EP4 [2], the “EP4 Ca2+ signal % PGE2” value is 102%. For the same compound, the “EP2 Binding % Inh” value at EP2 [4] worked out at 87%. The “EP2 Ca2+ signal % PGE2” value at EP2 [5] was determined as 100%.
Consider `C[C@@H](O)CCC[C@H](O)/C=C/[C@@H]1[C@@H](CCCc2ccc(C(=O)O)s2)[C@H](Cl)C[C@H]1O` [AGN-217510], for which the concentration for a half-maximal effect (EC50) came out at 2350 nM at EP4 [1]; 499 nM at EP3; 145 nM on EP4 [2]; 0.06 nM at EP2 [3]; 66 nM on EP2 [4]; 7.4 nM at EP2 [5]. The concentration for a half-maximal effect (EC50) at EP1 was found to be 724 nM. Besides, the “EP4 Binding % Inh” value at EP4 [1] is 64%. Besides, on EP4 [2], the “EP4 Ca2+ signal % PGE2” value was 121%. At EP2 [4], the “EP2 Binding % Inh” value is 99%. Moreover, the “EP2 Ca2+ signal % PGE2” value at EP2 [5] is reported as 106%.
For `COC(/C=C/[C@@H]1[C@@H](CCCc2ccc(C(=O)O)s2)[C@H](Cl)C[C@H]1O)CCC[C@@H](C)O` (stereo partly shown) [AGN-219309], the EC50 on EP4 [1] is above 10000 nM; at EP2 [3], 25 nM; at EP2 [4], 3310 nM; on EP2 [5], 4020 nM. In addition, at EP4 [1] (listed as 219309), the “EP4 Binding % Inh” value was 9%. Further, the “EP2 Binding % Inh” value on EP2 [4] (listed as 219309) worked out at 68%. In addition, at EP2 [5] (listed as 219309), the “EP2 Ca2+ signal % PGE2” value was found to be 63%.
In the case of `COC(/C=C/[C@@H]1[C@@H](CCCc2ccc(C(=O)O)s2)[C@H](Cl)C[C@H]1O)CCC[C@@H](C)O` (stereo partly shown) [AGN-219310], the 50% effective concentration (EC50) on EP4 [1] was above 10000 nM; at EP2 [3], 3 nM; at EP2 [4] it was 171 nM; at EP2 [5] it was 281 nM. For the same compound, the “EP4 Binding % Inh” value at EP4 [1] (listed as 219310) amounted to 6%. Besides, the “EP2 Binding % Inh” value at EP2 [4] (listed as 219310) stood at 90%. Also, at EP2 [5] (listed as 219310), the “EP2 Ca2+ signal % PGE2” value was found to be 77%.
On to `C[C@H](O)CCC[C@H](O)/C=C/[C@@H]1[C@@H](CCCc2ccc(C(=O)O)s2)[C@H](Cl)C[C@H]1O` [AGN-221568], for which the EC50 on EP4 [1] is 1280 nM; at EP4 [2], 35 nM; on EP2 [3] it was 1.4 nM; at EP2 [4] it was 381 nM; on EP2 [5], 20 nM. The “EP4 Binding % Inh” value on EP4 [1] is reported as 98%. Besides, the “EP4 Ca2+ signal % PGE2” value on EP4 [2] was 120%. Besides, the “EP2 Binding % Inh” value on EP2 [4] is listed as 91%. Moreover, the “EP2 Ca2+ signal % PGE2” value at EP2 [5] was 91%.
